11 compounds from US9469648B2, “Reversal of drug-induced neuromuscular block using novel molecular containers” (University of Maryland, College Park, priority 2010, dated 2016) can be followed below.

Where two headings read alike, the source gives them in different places.

The nature of data set [1]: Binding constants of Motor1 towards guests. The conditions noted are these: host Motor1.
Data set [2] in a line: Binding affinities of compounds towards Motor2.
Data set [3] is described as follows: Binding of Motor1 and Motor2 with Etomidate.
A short description of data set [4]: Self-association study by 1H NMR at varied concentration. The conditions noted are these: 20 mM NaD2PO4, pD=7.4, 1H NMR. Type of data set: physicochemical.
Data set [5] relates to cisatracurium-induced neuromuscular block. In words: Reversal of cisatracurium-induced neuromuscular block in anesthetized rats. The conditions noted are these: for Time until normal breathing recovered / Time until quadriceps femoris twitch height normalized: cisatracurium; for Time until normal breathing recovered: placebo 750 (17) s, means (SD); for Time until quadriceps femoris twitch height normalized: placebo 1002 (122) s. Type of data set: in vivo. As for the experimental part: (§1) Spontaneous breathing was maintained during surgery and if possible according to normal protocol. Rats lay in the supine position with the head supported in a neutral position in the midline on a soft piece of tissue. The left femoral vein and artery were cannulated for drug infusion and blood sampling. […] Corning, N.Y., USA) and continuous measurement of blood pressure (PowerLab; ADInstruments, Colorado Springs, Mo.) and heart rate were performed. If mechanical ventilation was necessary animals were ventilated through a tracheostomy (SAR-830; CWE, Ardmore, Pa., USA). Rectal temperature was kept at 37.0±0.1° C. using a thermostatic heating pad (FHC, Bowdoinham, Me.). Level of anesthesia was maintained throughout the experiment to eliminate cardiovascular response to tail pinch. In all treatment groups, systemic physiological parameters were kept well within normal range. The right leg was shaved and the femoral nerve was stimulated supramaximally with subcutaneous needle electrodes, and the evoked response of the quadriceps femoris muscle was measured by accelerometry, with the TOF-Watch SX Monitor (Organon Ireland Ltd, a part of Schering-Plough Corporation, Dublin, Ireland), as described previously (Fassbender et al, Anesthesiology 2007). The transducer was fixed to the skin ventromedially at the proximal end of the thigh, next to the tibial tuberosity (insertion point of the patellar ligament). […] Endpoints included time to recovery of spontaneous breathing, twitch height as well as TOF-ratio.

The conditions of data set [6]: rat, in vivo.
In data set [7] the test system is rocuronium-induced neuromuscular block. The data set is described as follows: Reversal of rocuronium-induced neuromuscular block in anesthetized rats. Type of data set: in vivo. The conditions noted are these: for Time until normal breathing recovered: rocuronium 3.5 mg/kg, placebo 720 s; for Time until quadriceps femoris twitch height normalized: rocuronium, placebo 960 s. As for the experimental part: as §1

In data set [8] the test system is ketamine anesthesia. In words: Reversal of ketamine anesthesia in rats. Type of data set: in vivo.
A short description of data set [9]: Binding of Motor1 and Motor2 with Ketamine (Rhodamine 6G indicator competition, UV-VIS). The following applies: Rhodamine 6G displacement titration, 20 mM phosphate buffer pH 7.4.
Data set [10] has as its system HEK293. The data set is described as follows: AK (adenylate kinase release) cytotoxicity assay, HEK293. The format is cell-based. From the text:
FIG. 27. Toxicology of Motor1 using the human kidney cell line HEK293. Results from (A) MTS assay (B) AK assay. Untreated population (UT), Distilled water (D), Erythromycin (E), Erythromycin Estolate (EE).
(§2) Toxicity Studies: To measure the cellular toxicity of Motor1 we use two complementary assays: an MTS (CellTiter 96 AQueous Kit®) assay that measures cellular metabolism, and a cytotoxicity assay (Toxilight®BioAssay Kit) that measures cell death via the release of the cytosolic enzyme adenylate kinase into the supernatant. Both assays were used with two different cell lines commonly used in drug toxicity studies, HEK293 and HepG2 cell lines. HEK293, a human kidney cell line, is used to assess the effect of the drug candidate on the renal system and HepG2, a human hepatocyte cell line, is used to assess the response of liver cells where drugs are metabolized. Both assays included the use of an untreated population, and cells treated with distilled water, erythromycin and erythromycin estolate. Erythromycin is a commercially available drug widely used to treat bacterial infections. […] […].
(§3) Both cell lines were incubated with the containers (0.01, 0.1, 1 and 10 mM) for 2 days prior to analysis with the two assays. Relative absorbance and luminescence data was normalized to percent cell viability (MTS) and cell death (AK). For the MTS assay, the untreated cells were set at 100% cell viability while the cell population treated with distilled water was set at a 100% cell death for the AK assay.

In data set [11] the test system is human erythrocytes.
Data set [12] relates to HepG2. The format is cell-based. The following applies: untreated population 60%.
Description: FIG. 28. Toxicology of Motor1 using the human liver cell line HepG2. Results from (A) MTS assay (B) AK assay. Untreated population (UT), Distilled water (D), Erythromycin (E), Erythromycin Estolate (EE).
as §2, §3

For data set [13] the following is noted: rat, in vivo. This is another data set of the same source.
Data set [14] can be described thus: Tolerance in mice after tail vein injection (body weight). The following applies: tail vein injection at day 0, 4 and 8, weight monitored. Type of data set: in vivo. How it is done: FIG. 30. […] Indicated amounts of Motor1 were injected into the tail vein of outbred Swiss Webster mice at day 0, 4 and 8. The weight of each mouse was monitored over time and there were 5 mice per experimental group.
Indicated amounts of Motor1 were injected into the tail vein of outbred Swiss Webster mice at day 0, 4 and 8. The weight of each mouse was monitored over time and there were 5 mice per experimental group.

Setting [15] is: ketamine anesthesia, Motor2 200 mg.

Take `COc1ccc(CC2c3cc(OC)c(OC)cc3CC[N+]2(C)CCC(=O)OCCCCCOC(=O)CC[N+]2(C)CCc3cc(OC)c(OC)cc3C2Cc2ccc(OC)c(OC)c2)cc1OC` (centres unmarked) [atracurium]: the “Ka, binding constant of Motor1 towards guest” value (from here on “Ka, binding constant”) in data set [1] is given as 1.4 ± 0.1 × 10^6.

On to `COc1ccc(CC2c3cc(OC)c(OC)cc3CC[N+]2(C)CCC(=O)OCCCCCOC(=O)CC[N+]2(C)CCc3cc(OC)c(OC)cc3C2Cc2ccc(OC)c(OC)c2)cc1OC` (centres unmarked) [Atracurium besilate], for which, in data set [2] (host Motor2), the “Ka (M^−1) with Motor2” value was 1.0 ± 0.1 × 10^9 M^−1.

Turning to `CC12N3Cc4c(c(OCCCS(=O)(=O)[O-])c5ccccc5c4OCCCS(=O)(=O)[O-])CN1C(=O)N1CN4C(=O)N5CN6C(=O)N7CN8C(=O)N9Cc%10c(c(OCCCS(=O)(=O)[O-])c%11ccccc%11c%10OCCCS(=O)(=O)[O-])CN%10C(=O)N(CN%11C(=O)N(CN%12C(=O)N(CN(C3=O)C12C)C4C%125)C6C%117)C8(C)C%109C.[Na+].[Na+].[Na+].[Na+]` (centres unmarked) [Motor2], the “Binding constant with Etomidate” value in data set [3] is 36812 M⁻¹. For the same compound, in data set [4], the “Ka, two-fold self-association model” value is 624 M⁻¹. Besides, the “Speed of reversal of cisatracurium, twitch height recovery (comparison)” value in data set [5] (low-dose Motor2 versus high-dose Motor1) is “reverses the benzylisoquinolinum cisatracurium faster than high-dose 1”. Further, the “Side effects on arterial blood-gas analysis, EKG, arterial blood pressure, heart rate” value in data set [6] is “did not have any side effects”. For the same compound, in data set [7] (complete rocuronium-induced block, 90 mg, placebo 19 minutes), the “Mean time to recovery of the twitch height to 90%” value turned out to be 2.5 min. In addition, the “Reversal of ketamine anesthesia (in words)” value in [8] (ketamine 1500 μg/kg/min, Motor2 200 mg at 60 minutes) is “reverses ketamine anesthesia”. Moreover, in data set [8] (setting [15]), the “Electroencephalogram (EEG)” value is listed as “wakefulness-like electrical activity”; the “Respiratory rate and arterial blood pressure” value is given as “increased”. Also, in [8] (steady-state ketamine infusion, Motor2 200 mg), the “Time until the rat woke up after injection” value was at most 2 min. In data set [9], the “Binding constant (Ka) with Ketamine” value turned out to be 193490 M⁻¹.

Regarding `COc1cc2c3cc1Oc1cc(ccc1O)C[C@@H]1c4c(cc(OC)c(O)c4Oc4ccc(cc4)C[C@@H]3N(C)CC2)CC[N+]1(C)C` [tubocurarine], in data set [1], the “Ka, binding constant” value is 4.7 ± 0.2 × 10^5.

Take `CCC(=O)O[C@H]1[C@H](O[C@@H]2[C@@H](C)[C@H](O[C@H]3C[C@@](C)(OC)[C@@H](O)[C@H](C)O3)[C@@H](C)C(=O)O[C@H](CC)[C@@](C)(O)[C@H](O)[C@@H](C)C(=O)[C@H](C)C[C@@]2(C)O)O[C@H](C)C[C@@H]1N(C)C` [Erythromycin estolate]: the “Percent cell death (AK)” value in data set [10] (human, 2 days, 1 mM) is recorded as 49%.

For the compound `CC12N3Cc4c(OCCCS(=O)(=O)[O-])ccc(OCCCS(=O)(=O)[O-])c4CN1C(=O)N1CN4C(=O)N5CN6C(=O)N7CN8C(=O)N9Cc%10c(OCCCS(=O)(=O)[O-])ccc(OCCCS(=O)(=O)[O-])c%10CN%10C(=O)N(CN%11C(=O)N(CN%12C(=O)N(CN(C3=O)C12C)C4C%125)C6C%117)C8(C)C%109C.[Na+].[Na+].[Na+].[Na+]` (centres unmarked) [Motor1], the “Binding constant with Etomidate” value in data set [3] came out at 35318 M⁻¹. The “Ka, two-fold self-association model” value in [4] stood at 47 M⁻¹. Besides, the “Time until normal breathing recovered” value in data set [5] (30 mg Motor1) was 28 (6) s; in data set [5] (60 mg Motor1), 11 (4) seconds; in data set [7] (Motor1 10 mg), 120 ± 15 s; in data set [7] (Motor1 20 mg) it was 15 ± 5 s; in data set [7] (Motor1 30 mg), 8 ± 3 s. The “Time until quadriceps femoris twitch height normalized” value in data set [5] (first Motor1 dose listed (dose not given; 15 mg)) is 266 (17) s; in data set [5] (second Motor1 dose listed (30 mg)), 130 (14) s; in [5] (third Motor1 dose listed (60 mg)), 68 (10) s; in data set [7] (Motor1 10 mg), 240 s; in data set [7] (Motor1 20 mg), 120 s; in [7] (Motor1 30 mg), 60 s. Moreover, the Percent hemolysis in data set [11] is on record as at most 20%. In data set [11], the “Toxicity to human erythrocytes (overall)” value was “non-toxic”. Also, the “Arterial blood gas parameters pH, pCO2, and pO2” value in [6] is “did not change”. Further, the “Heart rate and mean arterial blood pressure” value in data set [6] is recorded as “did not change”. Further, the “Side effects on arterial blood-gas analysis, EKG, arterial blood pressure, heart rate” value in [6] is “did not have any side effects”. Also, the “% cell death (AK)” value in data set [12] (HepG2, 0.01 mM) worked out at 55%; in [12] (HepG2, 0.1 mM), 56%; in [12] (HepG2, 1 mM), 50%; in data set [12] (HepG2, 10 mM), 17%. Also, the “Mean recovery of spontaneous breathing” value in data set [7] (complete rocuronium-induced block, 90 mg as printed) amounted to 723 s; in data set [7] (complete rocuronium-induced block, dose not given), 10 s. Also, in data set [7] (rats, Motor1 10, 20, 30 mg), the “Reversal of rocuronium (in words)” value is on record as “reversed rocuronium effectively, in a dose-dependent fashion”. Further, the “Motor1 concentration in the urine relative to plasma” value in [13] is on record as “equals concentration in the plasma”. Moreover, the “Binding constant (Ka) with Ketamine” value in [9] turned out to be 39020 M⁻¹. For the same compound, the Tolerance in mice entry in data set [14] was “well tolerated”. Moreover, the “Percent cell death (AK)” value in data set [10] (HEK293, all concentrations (0.01, 0.1, 1 and 10 mM)) is “below 5%”.

As for Cyclohexanediamine, in [2] (host Motor2), the “Ka (M^−1) with Motor2” value is listed as 2.1 ± 0.2 × 10^8 M^−1.

On to `CC[C@H]1OC(=O)[C@H](C)[C@@H](O[C@H]2C[C@@](C)(OC)[C@@H](O)[C@H](C)O2)[C@H](C)[C@@H](O[C@@H]2O[C@H](C)C[C@H](N(C)C)[C@H]2O)[C@](C)(O)C[C@@H](C)C(=O)[C@H](C)[C@@H](O)[C@]1(C)O` [Erythromycin], for which the “Percent cell death (AK)” value in data set [10] (HEK293, 1 mM) was 25%.

For the compound `Nc1ccc2cc3ccc(N)cc3nc2c1` [Proflavin], the “Ka (M^−1) with Motor2” value in data set [2] (host Motor2) is 7.8 ± 0.8 × 10^8 M^−1.

Regarding `CC(=O)O[C@H]1C[C@@H]2CC[C@@H]3[C@H](CC[C@@]4(C)[C@H]3C[C@H]([N+]3(C)CCCCC3)[C@@H]4OC(C)=O)[C@@]2(C)C[C@@H]1N1CCCCC1` [vecuronium], the “Ka, binding constant” value in [1] is 5.8 ± 0.9 × 10^6. Further, the “Ka (M^−1) with Motor2” value in [2] is recorded as 1.6 ± 0.2 × 10^9 M^−1.

For the compound `CC[N+](CC)(CC)CCOc1cccc(OCC[N+](CC)(CC)CC)c1OCC[N+](CC)(CC)CC` [gallamine], the “Ka, binding constant” value in data set [1] was 6.2 ± 0.5 × 10^6. For the same compound, the “Ka (M^−1) with Motor2” value in data set [2] is 3.2 ± 0.4 × 10^8 M^−1.
